Measured values as given in US10238670B2, “9-aminomethyl minocycline compounds and methods of use thereof in urinary tract infection (UTI) treatment” (Paratek Pharmaceuticals, Inc., priority 2016, dated 2019).
Read-outs that look alike come from different tables or passages of the source.

Experiment: Phase 1b study in female adults with cystitis, urine PK
Type: in vivo, human
Conditions: for Ae0-24 (amount excreted in urine): mean; for clearance: female, human, urine and plasma
Procedure: Urine was collected, the volume recorded, and analyzed for Compound 1 concentration at the following times: • Day 1 to 2: pooled total urine 0 to 4, 4 to 8, 8 to 12, and 12-24 hours after the t=0 h dose; Collection of the 12 to 24 h sample should be completed prior to the t=24 h dose on Day 2; • Day 5 to 6: pooled total urine 0 to 4, 4 to 8, 8 to 12, and 12-24 hours after the t=96 h dose;
Urine was pooled during the intervals above. At the end of each interval, the time and total volume were recorded.
Compound 1 urine concentration data was used to determine the amount excreted in a dosing interval, the urinary excretion rate, and, in conjunction with the plasma concentration data, to estimate the renal clearance (CLr) of Compound 1.
Urine was collected and the volume recorded at the following times: • Day 1 to 2: pooled total urine 0 to 4, 4 to 8, 8 to 12, and 12-24 hours after the t=0 h dose; • Day 5 to 6: pooled total urine 0 to 4, 4 to 8, 8 to 12, and 12-24 hours after the t=96 h dose;
At the end of each collection time period the pooled urine was frozen at −20° C. or colder and the total volume of urine collected for the time period was recorded. The samples were kept frozen at −20° C. or colder pending shipment to the bioanalytical laboratory.
The urine sample volume, its Compound 1 concentration, the amount of Compound 1 excreted in the urine (product of volume and concentration) over a dosing interval, the urinary excretion rates and renal clearance (CLr) of Compound 1 following the initial Day 1 and final Day 5 doses were summarized by the treatment groups.

[1] = Day 1, 0-4 hour Post t = 0, IV_PO300
[2] = Day 1, 0-4 hour Post t = 0, PO300
[3] = Day 1, 0-4 hour Post t = 0, PO450
[4] = Day 1, 4-8 hour Post t = 0, IV_PO300
[5] = Day 1, 4-8 hour Post t = 0, PO300
[6] = Day 1, 4-8 hour Post t = 0, PO450
[7] = Day 1, 8-12 hour Post t = 0, IV_PO300
[8] = Day 1, 8-12 hour Post t = 0, PO300
[9] = Day 1, 8-12 hour Post t = 0, PO450
[10] = Day 1-2, 12-24 hour Post t = 0, IV_PO300
[11] = Day 1-2, 12-24 hour Post t = 0, PO300
[12] = Day 1-2, 12-24 hour Post t = 0, PO450
[13] = Day 1, 200 mg IV, 300 mg po (n = 11)
[14] = Day 5, 0-4 hour Post t = 96, IV_PO300
[15] = Day 5, 0-4 hour Post t = 96, PO300
[16] = Day 5, 0-4 hour Post t = 96, PO450
[17] = Day 5, 4-8 hour Post t = 96, IV_PO300
[18] = Day 5, 4-8 hour Post t = 96, PO300
[19] = Day 5, 4-8 hour Post t = 96, PO450
[20] = Day 5, 8-12 hour Post t = 96, IV_PO300
[21] = Day 5, 8-12 hour Post t = 96, PO300
[22] = Day 5, 8-12 hour Post t = 96, PO450
[23] = Day 5-6, 12-24 hour Post t = 96, IV_PO300
[24] = Day 5-6, 12-24 hour Post t = 96, PO300
[25] = Day 5-6, 12-24 hour Post t = 96, PO450
[26] = Day 5, 200 mg IV, 300 mg po (n = 11)

## CN(C)c1cc(CNCC(C)(C)C)c(O)c2c1C[C@H]1C[C@H]3[C@H](N(C)C)C(O)=C(C(N)=O)C(=O)[C@@]3(O)C(O)=C1C2=O [Compound 1, 9-[(2,2-dimethyl-propylamino)-methyl]-minocycline]
[1]
  Urine Concentration, Mean: 65360.0 ng/mL
  Urine Concentration, Median: 55000.0 ng/mL
[2]
  Urine Concentration, Mean: 14003.0 ng/mL
  Urine Concentration, Median: 14020.0 ng/mL
[3]
  Urine Concentration, Mean: 23008.0 ng/mL
  Urine Concentration, Median: 10500.0 ng/mL
[4]
  Urine Concentration, Mean: 43548.2 ng/mL
  Urine Concentration, Median: 40900.0 ng/mL
[5]
  Urine Concentration, Mean: 19088.9 ng/mL
  Urine Concentration, Median: 16800.0 ng/mL
[6]
  Urine Concentration, Mean: 20537.8 ng/mL
  Urine Concentration, Median: 15500.0 ng/mL
[7]
  Urine Concentration, Mean: 32407.3 ng/mL
  Urine Concentration, Median: 33700.0 ng/mL
[8]
  Urine Concentration, Mean: 19981.0 ng/mL
  Urine Concentration, Median: 13650.0 ng/mL
[9]
  Urine Concentration, Mean: 11699.0 ng/mL
  Urine Concentration, Median: 8995.0 ng/mL
[10]
  Urine Concentration, Mean: 22410.0 ng/mL
  Urine Concentration, Median: 19300.0 ng/mL
[11]
  Urine Concentration, Mean: 20772.0 ng/mL
  Urine Concentration, Median: 21300.0 ng/mL
[12]
  Urine Concentration, Mean: 25713.0 ng/mL
  Urine Concentration, Median: 19550.0 ng/mL
[13]
  fe0-24 [dose absorbed]: 20.4%
  fe0-24 [dose administered]: 20.4%
Day 1, 200 mg IV, 300 mg po (n = 11), total dose 200 IV
  Ae0-24 (amount excreted in urine): 40.70 mg
Day 1, 300 mg po (n = 10)
  fe0-24 [dose absorbed]: 18.7%
  fe0-24 [dose administered]: 6.5%
Day 1, 300 mg po (n = 10), total dose 600 po
  Ae0-24 (amount excreted in urine): 39.24 mg
Day 1, 450 mg po (n = 10)
  fe0-24 [dose absorbed]: 11.4%
  fe0-24 [dose administered]: 4.0%
Day 1, 450 mg po (n = 10), total dose 900 po
  Ae0-24 (amount excreted in urine): 35.95 mg
[14]
  Urine Concentration, Mean: 42710.0 ng/mL
  Urine Concentration, Median: 26250.0 ng/mL
[15]
  Urine Concentration, Mean: 30900.0 ng/mL
  Urine Concentration, Median: 26850.0 ng/mL
[16]
  Urine Concentration, Mean: 35988.9 ng/mL
  Urine Concentration, Median: 25700.0 ng/mL
[17]
  Urine Concentration, Mean: 26090.0 ng/mL
  Urine Concentration, Median: 28500.0 ng/mL
[18]
  Urine Concentration, Mean: 29111.1 ng/mL
  Urine Concentration, Median: 18200.0 ng/mL
[19]
  Urine Concentration, Mean: 48117.0 ng/mL
  Urine Concentration, Median: 33700.0 ng/mL
[20]
  Urine Concentration, Mean: 33237.0 ng/mL
  Urine Concentration, Median: 14850.0 ng/mL
[21]
  Urine Concentration, Mean: 25350.0 ng/mL
  Urine Concentration, Median: 19600.0 ng/mL
[22]
  Urine Concentration, Mean: 30466.0 ng/mL
  Urine Concentration, Median: 20600.0 ng/mL
[23]
  Urine Concentration, Mean: 21480.0 ng/mL
  Urine Concentration, Median: 12590.0 ng/mL
[24]
  Urine Concentration, Mean: 17940.0 ng/mL
  Urine Concentration, Median: 16000.0 ng/mL
[25]
  Urine Concentration, Mean: 30280.0 ng/mL
  Urine Concentration, Median: 23400.0 ng/mL
[26]
  fe0-24 [dose absorbed]: 30.7%
  fe0-24 [dose administered]: 10.8%
Day 5, 200 mg IV, 300 mg po (n = 11), total dose 300 po
  Ae0-24 (amount excreted in urine): 32.27 mg
Day 5, 300 mg po (n = 10)
  fe0-24 [dose absorbed]: 36.4%
  fe0-24 [dose administered]: 12.7%
Day 5, 300 mg po (n = 10), total dose 300 po
  Ae0-24 (amount excreted in urine): 38.21 mg
Day 5, 450 mg po (n = 10)
  fe0-24 [dose absorbed]: 34.8%
  fe0-24 [dose administered]: 12.2%
Day 5, 450 mg po (n = 10), total dose 450 po
  Ae0-24 (amount excreted in urine): 54.87 mg
intravenous, 200 mg, Day 1, IV_PO300, read-out: Renal CL, Geo. Mean (converted)
  clearance: 33 mL/min
intravenous, 200 mg, Day 1, IV_PO300, read-out: Renal CL, Mean (converted)
  clearance: 38.3 mL/min
intravenous, 200 mg, Day 1, IV_PO300, read-out: Renal CL, Median (converted)
  clearance: 27.2 mL/min
oral, 300 mg, Day 5, IV_PO300, read-out: Renal CL, Geo. Mean (converted)
  clearance: 63 mL/min
oral, 300 mg, Day 5, IV_PO300, read-out: Renal CL, Mean (converted)
  clearance: 94.6 mL/min
oral, 300 mg, Day 5, IV_PO300, read-out: Renal CL, Median (converted)
  clearance: 44 mL/min
oral, 300 mg, Day 5, PO300, read-out: Renal CL, Geo. Mean (converted)
  clearance: 57.4 mL/min
oral, 300 mg, Day 5, PO300, read-out: Renal CL, Mean (converted)
  clearance: 78.2 mL/min
oral, 300 mg, Day 5, PO300, read-out: Renal CL, Median (converted)
  clearance: 58.6 mL/min
oral, 450 mg, Day 5, PO450, read-out: Renal CL, Geo. Mean (converted)
  clearance: 21.5 mL/min
oral, 450 mg, Day 5, PO450, read-out: Renal CL, Mean (converted)
  clearance: 29.1 mL/min
oral, 450 mg, Day 5, PO450, read-out: Renal CL, Median (converted)
  clearance: 27.8 mL/min
urine, Day 1, IV_PO300
  Ae 0-4 hrs, Geo. Mean: 11.59 mg
  Ae 0-4 hrs, Mean: 13.80 mg
  Ae 0-4 hrs, Median: 9.74 mg
  Ae 0-24 hrs, Geo. Mean: 36.98 mg
  Ae 0-24 hrs, Median: 41.40 mg
  Ae 4-8 hrs, Geo. Mean: 7.28 mg
  Ae 4-8 hrs, Mean: 8.61 mg
  Ae 4-8 hrs, Median: 7.96 mg
  Ae 8-12 hrs, Geo. Mean: 5.53 mg
  Ae 8-12 hrs, Mean: 6.80 mg
  Ae 8-12 hrs, Median: 6.17 mg
  Ae 12-24 hrs, Geo. Mean: 12.70 mg
